{"source": "patent US8932818B2", "about": "“Screening assays for compounds that modulate programmed ribosomal frameshifting” (PTC Therapeutics, Inc., priority 2008, dated 2015)", "tested_on": "HIV-1 frameshift signal sequence", "assay": "dual luciferase assay for viral programmed ribosomal frameshifting", "format": "cell-based", "source_text": "For example, the ability of a compound to modulate the efficiency of viral programmed ribosomal frameshifting can be validated in a dual luciferase assay comprising: (a) contacting a compound with a host cell expressing a nucleic acid construct comprising in 5′ to 3′ order: (i) a promoter sequence; (ii) the Renilla luciferase (rluc) gene; (iii) the HIV-1 frameshift signal sequence; (iv) the firefly luciferase gene (flue); and (v) a polyadenylation sequence; and (b) detecting the activity of Renilla luciferase versus that of firefly luciferase, wherein a compound that modulates the efficiency of programmed ribosomal frameshifting is validated if (i) the activity of Renilla luciferase in the presence of the compound is not changed relative to the activity of Renilla luciferase detected in the absence of the compound; and (ii) the activity of firefly luciferase detected in the presence of the compound is changed relative to the activity of firefly luciferase detected in the absence of the compound. In other words, the ratio of Renilla luciferase to firefly luciferase is changed in the presence of the compound relative to the absence of the compound.\nThe ability of Compound 1 to modulate the efficiency of viral programmed ribosomal frameshifting was measured using a dual luciferase assay (as described in Biswas, et al., 2004, J. Virol. 78(4):2082-2087)."}
{"smiles": "COc1ccc2c(c1)C(=O)N(c1ccc(C(C)C)cc1)C2", "note": "[Compound 1, 2-(4-isopropylphenyl)-6-methoxyisoindolin-1-one]", "values": [{"measurement": "modulates the efficiency of viral programmed ribosomal frameshifting", "setting": "dual luciferase assay", "value": "modulates the efficiency of viral programmed ribosomal frameshifting"}, {"measurement": "inhibition in luciferase activity relative to negative control", "setting": "relative to 0.5% DMSO, average at compound test concentration approximately 5 μM to approximately 130 μM (FIG. 1)", "value": "approximately 5 fold"}]}
